# Values of other authors as cited in patent US20230364004A1, “STABLE COMPOSITIONS CONTAINING A CANNABINOID” (ANGROW COMPANY LIMITED, priority 2022, published 2023).
# Settings: within 24 hours, simulated physiological condition (PH 7.4 and 37° C.)
structure (smiles),measurement,value
"C=C(C)[C@@H]1CCC(C)=C[C@H]1c1c(O)cc(CCCCC)cc1O [CBD, cannabidiol]",CBD degraded,10%
